Measurements reported in patent publication US10059674B2, “Design, synthesis, and biological evaluation of 1-methyl-1, 4-dihyrdoindeno[1,2-C]pyrazole analogues as potential anticaner agents targeting tubulin colchicine binding site” (ACT PHARMA CO., LTD., priority 2016, dated 2018).
Read-outs that look alike come from different tables or passages of the source.

Tests used:
[1] = human, microsomes, 1 µM, pH 7.47
[2] = monkey, microsomes, 1 µM, pH 7.47
P-gp = test: MDCK cell permeability test; conditions: dog, MDCK
MDCK cells = test: MDCK cell permeability test; conditions: for Efllux ratio: Papp(B→A)/Papp(A→B)
[3] = MDCK cell permeability test; conditions: dog, MDCK, 90 min
in vitro [4] = conditions: mouse, liver microsomes, pH 7.47
[5] = Liver microsomal metabolism stability test; conditions: for Remainder: mouse liver microsomes
in vitro [6] = conditions: human, microsomes, pH 7.47
[7] = dog, microsomes, 1 µM, pH 7.47
in vitro [8] = conditions: dog, microsomes, pH 7.47
in vitro [9] = conditions: rat, microsomes, pH 7.47

With CCOc1cccc(Nc2nn(C)c3c2Cc2cc(OCC)c(OCC(N)=O)cc2-3)c1 [LL-01] as the compound, how does the Remainder ([1]; 0 h) read?
The Remainder was 100.00%.

What about the Remainder ([1]; 10 min) of the same compound?
Its Remainder is 78.76%.

And the Remainder ([1]; 0.5 h)?
The Remainder was 56.18%.

And the Remainder ([1]; 1.5 h)?
The Remainder was 23.87%.

What about the Remainder ([2]; 0 h) of the same compound?
The Remainder was 100.00%.

And the Remainder ([2]; 10 min)?
Its Remainder is 52.00%.

What about the Remainder ([2]; 0.5 h) of the same compound?
The Remainder was 20.40%.

And the Remainder ([2]; 1.5 h)?
The Remainder was 4.76%.

What about the efflux ratio at 90 min (P-gp) of the same compound?
Its efflux ratio at 90 min is 1.2.

What about the PGP substrate judgment (MDCK cells; MDCK cells) of the same compound?
The PGP substrate judgment was “is not the PGP substrate and No”.

And the “Permeability Judgment” value (MDCK cells; MDCK cells)?
The value was “moderate permeability”.

And the Efllux ratio (MDCK cells; 2nd line of the compound (condition not given))?
The Efllux ratio was 1.2.

What about the Efllux ratio (MDCK cells; 3rd line of the compound (condition not given)) of the same compound?
The Efllux ratio was 1.1.

And the Papp A→B at 90 min ([3]; Apparent permeability coefficient A→B, 1st line of the compound (condition not given))?
Its Papp A→B at 90 min is 0.6 ×10⁻⁶ cm/s.

What about the Papp A→B at 90 min ([3]; Apparent permeability coefficient A→B, 2nd line of the compound (condition not given)) of the same compound?
Its Papp A→B at 90 min is 16 ×10⁻⁶ cm/s.

And the Papp A→B at 90 min, 10 µM ([3]; Apparent permeability coefficient A→B, 3rd line of the compound (condition not given))?
The Papp A→B at 90 min, 10 µM was 18 ×10⁻⁶ cm/s.

What about the Papp B→A at 90 min ([3]; Apparent permeability coefficient B→A, 1st line of the compound (condition not given)) of the same compound?
Its Papp B→A at 90 min is 0.8 ×10⁻⁶ cm/s.

What about the Papp B→A at 90 min ([3]; Apparent permeability coefficient B→A, 2nd line of the compound (condition not given)) of the same compound?
The Papp B→A at 90 min was 18.9 ×10⁻⁶ cm/s.

And the Papp B→A at 90 min, 10 µM ([3]; Apparent permeability coefficient B→A, 3rd line of the compound (condition not given))?
The Papp B→A at 90 min, 10 µM was 19.6 ×10⁻⁶ cm/s.

And the recovery at 90 min ([3]; Recovery rate A→B, 2nd line of the compound (condition not given))?
Its recovery at 90 min is 69.4%.

And the recovery at 90 min, 10 µM ([3]; Recovery rate A→B, 3rd line of the compound (condition not given))?
Its recovery at 90 min, 10 µM is 62.3%.

And the recovery at 90 min ([3]; Recovery rate A→B, 1st line of the compound (condition not given; method: without / with 10 μM cyclosporine A))?
The recovery at 90 min was 93.8%.

And the recovery at 90 min ([3]; Recovery rate B→A, 1st line of the compound (condition not given))?
Its recovery at 90 min is 102%.

And the recovery at 90 min ([3]; Recovery rate B→A, 2nd line of the compound (condition not given))?
Its recovery at 90 min is 85.4%.

And the recovery at 90 min, 10 µM ([3]; Recovery rate B→A, 3rd line of the compound (condition not given))?
Its recovery at 90 min, 10 µM is 84.6%.

What about the half-life at 1 µM (in vitro [4]) of the same compound?
The half-life at 1 µM was 55.3 min.

And the microsomal CLint at 1 µM (in vitro [4])?
Its microsomal CLint at 1 µM is 25 µL/min/mg.

And the “metabolism in the liver microsomes (in words)” value ([5]; mouse)?
The value was “moderate”.

And the Remainder ([5]; incubation time 0 min)?
Its Remainder is 100.00%.

What about the Remainder ([5]; incubation time 10 min) of the same compound?
The Remainder was 87.76%.

What about the Remainder ([5]; incubation time 30 min) of the same compound?
The Remainder was 63.76%.

What about the Remainder ([5]; incubation time 90 min) of the same compound?
Its Remainder is 32.23%.

What about the half-life at 1 µM (in vitro [6]) of the same compound?
Its half-life at 1 µM is 44.7 min.

And the microsomal CLint at 1 µM (in vitro [6])?
Its microsomal CLint at 1 µM is 31 µL/min/mg.

And the Remainder ([7]; 0 h)?
The Remainder was 100.00%.

And the Remainder ([7]; 10 min)?
The Remainder was 74.20%.

And the Remainder ([7]; 0.5 h)?
Its Remainder is 38.61%.

And the Remainder ([7]; 1.5 h)?
The Remainder was 7.93%.

What about the half-life at 1 µM (in vitro [8]) of the same compound?
The half-life at 1 µM was 24.7 min.

And the microsomal CLint at 1 µM (in vitro [8])?
The microsomal CLint at 1 µM was 56 µL/min/mg.

And the half-life at 1 µM (in vitro [9])?
Its half-life at 1 µM is 56.8 min.

And the microsomal CLint at 1 µM (in vitro [9])?
The microsomal CLint at 1 µM was 24.4 µL/min/mg.
